# Assay results reported in ChEMBL document CHEMBL1128939, “New simplified inhibitors of EPSP synthase: The importance of ring size for recognition at the shikimate 3-phosphate site” (Bioorg Med Chem Lett, 1996).
# Target: T1, 3-phosphoshikimate 1-carboxyvinyltransferase (Escherichia coli K-12, UniProt P0A6D3)
# T1 sequence (P0A6D3 whole entry): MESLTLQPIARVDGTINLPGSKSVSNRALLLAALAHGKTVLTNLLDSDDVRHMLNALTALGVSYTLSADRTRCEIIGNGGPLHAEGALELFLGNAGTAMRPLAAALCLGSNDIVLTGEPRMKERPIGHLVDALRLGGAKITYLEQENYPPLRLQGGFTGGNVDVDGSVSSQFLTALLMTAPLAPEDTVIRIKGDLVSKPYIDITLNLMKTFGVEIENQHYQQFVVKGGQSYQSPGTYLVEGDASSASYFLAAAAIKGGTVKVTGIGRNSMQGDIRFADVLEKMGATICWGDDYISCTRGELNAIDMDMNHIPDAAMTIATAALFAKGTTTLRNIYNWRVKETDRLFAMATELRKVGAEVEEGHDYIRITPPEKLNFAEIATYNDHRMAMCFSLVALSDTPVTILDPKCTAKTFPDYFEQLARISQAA
# Test: Compound was tested for inhibitory activity against EPSP(5-enolpyruvylshikimate 3-phosphate) synthase in Escherichia coli.
# Conditions: not given
row,SMILES,IC50 [µM]
1,O=C(O)c1cccc(P(=O)(O)O)n1,50000
2,O=C(O)c1ccc(O)c(C(O)(C(=O)O)C(=O)O)c1,20000
3,O=C(O)C1CCC(P(=O)(O)O)N1 (stereo not drawn),50000
4,O=C(O)c1cccc(P(=O)(O)O)c1,50000
5,O=C(O)c1cccn1CP(=O)(O)O,50000

# Same assay, conditions: read-out: Kd app
row,Kd [µM],SMILES
1,0.0006,O=C(O)C1=C[C@@H](OP(=O)(O)O)[C@@H](O)[C@H](O[C@](CF)(OP(=O)(O)O)C(=O)O)C1

# Same assay, conditions: read-out: Ki app
row,SMILES,Ki [µM]
1,O=C(O)c1cc(C(O)P(=O)(O)O)c[nH]1 (stereo not drawn),0.0145
2,C[C@@](O[C@@H]1CC(C(=O)O)=C[C@@H](OP(=O)(O)O)[C@H]1O)(C(=O)O)P(=O)(O)O,0.005

# The next lines start with the values.
row,Ki [µM],SMILES
1,13,O=C(O)C1=C[C@@H](OP(=O)(O)O)[C@@H](O)CC1
2,0.032,O=C(O)C1=C[C@@H](OP(=O)(O)O)[C@@H](O)[C@H](O[C@](OP(=O)(O)O)(C(=O)O)C(F)(F)F)C1
3,0.004,O=C(O)C1=C[C@@H](OP(=O)(O)O)[C@@H](O)[C@H](O[C@](OP(=O)(O)O)(C(=O)O)C(F)F)C1
4,1.3,O=C(O)c1cc(OC(C(=O)O)C(=O)O)cc(OC(C(=O)O)P(=O)(O)O)c1 (stereo not drawn)
5,0.52,O=C(O)c1cc(OC(C(=O)O)P(=O)(O)O)c(O)c(C(O)(C(=O)O)C(=O)O)c1 (stereo not drawn)
